Experimental data reported in PMC4912613, “A broad analysis of resistance development in the malaria parasite” (Nature Communications, 2016).
Read-outs that look alike come from different tables or passages of the source.

Tests used:
3D7 = test: Cross-resistance EC50 assay, 3D7 parent / sensitive strain; type: cell-based; settings: Plasmodium falciparum
Source text: (§1) Multidrug resistance alleles, including mutations in P. falciparum chloroquine resistance transporter (pfcrt) and P. falciparum multi-drug resistance transporter 1 (pfmdr1) are very common in field isolates. Therefore, we sought to assess the degree to which pre-existing resistance alleles would contribute to a loss of potency for this diverse collection of small molecule compounds. Fifteen clones derived from three main parent lines were chosen to maximize diversity in mutated pathways and genetic backgrounds, thus representing the variety of resistance seen in the field: 3D7 (ref. [23]), W2 (ref. [24]) or Dd2 (ref. [25]). The 3D7 line originates from the clone of a Netherlands clinical isolate strain[23][26] and is generally considered to be drug sensitive, though it does convey resistance to sulfadoxine. Conversely, W2 (ref. [24], [27]) and Dd2 (ref. [25]) are multi-drug-resistant lines originating from the Indochina III/CDC isolate, which contain point mutations in pfcrt as well as amplifications in pfmdr1 and GTP cyclohydrolase.
(§2) To evaluate potential overlapping activity against known antimalarial drug targets, we performed dose-response studies with each compound against our assembled set of drug-resistant lines and their corresponding parents, in an asexual blood stage proliferation assay (Table 1). Comparisons were made to the drug-sensitive strain 3D7 when a parent was unavailable (TM90C2A, W2 and Dd2). As laboratories conducted EC50 assays with different strains and protocols, all comparisons were made between assays from the same laboratory and under the same assay conditions. Compounds displaying >5-fold EC50 shifts relative to the parent or sensitive strain were flagged as having potentially non-novel targets. Average fold shifts per strain ranged from 0.82 to 2.34, with a median of 1.23 indicating there was not common resistance to any one resistant clone. No resistance patterns were observed when classifying the compounds based on chemical structure, but this was not surprising given the diversity of compounds chosen. On the other hand, given that these confirmed compounds were derived from larger unconfirmed hit lists to which some filtration criteria may have been applied (for example, elimination of obvious dihydrofolate reductase inhibitors[32]), some[10][11][12][13] pre-existing bias may exist in the set.
The 48-h assay was carried out in a 96-well format following standard methods using the ^3H-hypoxanthine incorporation assay. The raw EC50 values corresponding to this assay can be found in Supplementary Data 3. Briefly, this assay relies on the parasite incorporation of labelled hypoxanthine that is proportional to P. falciparum growth. A culture of parasitized RBCs (0.5% parasitemia with a percentage of ring stage higher than 70% of total parasitemia, 2.0% haematocrit) in RPMI-1640, […] and 5 μM hypoxanthine was exposed to drug serial dilutions. Plates were incubated for 24 h at 37 °C, 5% CO2, 5% O2 and 90% N2. After 24 h of incubation, ^3H-hypoxanthine was added and plates were incubated for an additional 24-h period. After that, parasites were harvested on a glass fibre filter using a TOMTEC Cell Harvester 96. Filters were dried and melt-on scintillator sheets were used to determine the incorporation of ^3H-hypoxanthine. Radioactivity was measured using a microbeta counter. Data were normalized using the incorporation of the positive (parasitized RBCs without drug) and negative (same culture with artesunate at 2 μM) controls. All assays were conducted in triplicate using three independently grown cultures, and EC50 values were determined using the XLfit add-in module for Excel (version 2.3.1) from Grafit (version 5.3.1.3), where parameter h is the assay hill slope, x is the compound concentration and y is the inhibition of growth effect. The XLfit equation is: […]
Alternatively, a SYBR Green-based proliferation approach was used for the 72-h assay, as previously described. […]

[1] = system: GNF156R (PfCARL L830V, S1076I and M81I, parent Dd2); test: Cross-resistance EC50 assay, GNF156R; type: cell-based; settings: Plasmodium falciparum, SYBR green 72 hour assay, asynchronized parasites, 96-well or 1536-well format
Source text: as §2, with “set. […]” for “set.”
(§3) Alternatively, a SYBR Green-based proliferation approach was used for the 72-h assay, as previously described. Briefly, a culture of either synchronized or asynchronous parasitized RBCs (0.3% parasitemia and 4% haematocrit) in screening medium (identical to supplemented medium above except no serum was added) was exposed to serial drug dilutions. Plates were incubated at 37 °C and gassed with 93% N2, 4% CO2 and 3% O2 for 72 h. Following incubation, 10 × SYBR Green I (Invitrogen; supplied in 10,000 × concentration) in lysis buffer ([…], 5 mM EDTA, 0.16% Saponin wt per vol and 1.6% Triton X vol per vol) was added to the wells and the plates were incubated overnight at room temperature before plate reading. EC50 assays were repeated three times, taking the average EC50 value from each assay set, and removing any outliers using a single iteration of Grubbs' test, eliminating values with z-scores above the critical z-value (α=0.05). The raw EC50 values for synchronized parasites assayed in a 384-well format are listed in Supplementary Data 4. The raw EC50 values for asynchronous parasites assayed in a 96 or 1536-well format are listed in Supplementary Data 5.
(§4) EC50 values for each strain were compared with those of the corresponding parent strain to determine fold-shift changes and identify resistance. To minimize the cause variance between assays, all comparisons were conducted between strains assayed under identical conditions. A one-way ANOVA followed by a Dunnet's post-test was conducted in GraphPad Prism to identify significant changes between the parent and resistant strain.

[2] = system: ATQ-R4 (cytb M133I and L144S, parent 3D7); test: Cross-resistance EC50 assay, ATQ-R4; type: cell-based, Plasmodium falciparum; settings: Plasmodium falciparum, 3D7; SYBR green 72 hour assay; asynchronized parasites; 96-well or 1536-well format; ATQ-R4
Source text: as §2, with “set. […]” for “set.”
as §3, §4

Dd2 = test: Cross-resistance EC50 assay, Dd2 parent; type: cell-based, Plasmodium falciparum; settings: Plasmodium falciparum, DD2, 72 h
Source text: as §1
as §2, with “set. […]” for “set.”
as §3, §4

[3] = SYBR green 72 hour assay, asynchronized parasites, 96-well or 1536-well format, 3D7 parent, read-out: 3D7 (PARENT) EC50 (µM) Average EC50
[4] = SYBR green 72 hour assay, synchronized parasites, 384-well format, strain 3D7 (parent), read-out: 3D7 (PARENT) Average EC50
[5] = hypoxanthine 48-hour assay, synchronized parasites, 96-well format, strain 3D7 (parent), read-out: 3D7 (PARENT) Average EC50
[6] = hypoxanthine 48-hour assay, synchronized parasites, 96-well format, strain 3D7-C9-WT (parent of PfATP4 Mut3), read-out: 3D7-C9-WT (PARENT) Average EC50
[7] = read-out: Dd2 (PARENT) Average EC50
[8] = read-out: Dd2 (PARENT) EC50 (µM) Average EC50

Row | Structure (SMILES) | EC50 (3D7; [3]) | EC50 (3D7; [4]) | EC50 (3D7; [5]) | EC50 (3D7; [6]) | EC50 [1] | EC50 [2] | EC50 (Dd2; [7]) | EC50 (Dd2; [8]) | EC50 (3D7; SYBR green 72 hour assay, synchronized parasites, 384-well format, 3D7 parent, read-out: 3D7 (PARENT) Average EC50)
1 | CC(NCc1ccccc1)c1cc(Cl)ccc1O (stereo not shown) [MMV665789] | 0.17 µM | 1 µM | 1.25 µM | 1.25 µM | 0.681 µM | 0.41 µM | 0.482 µM | 0.333 µM | 
2 | FC(F)(F)c1cccc(Nc2nc3ccccc3nc2Nc2cccc(C(F)(F)F)c2)c1 [MMV665794] | 0.318 µM | 0.164 µM | 0.103 µM |  | 0.135 µM | 0.434 µM | 0.113 µM | 0.199 µM | 
3 | COc1cc(C(=O)ON=C(N)Cc2cccc3ccccc23)cc(OC)c1OC [MMV666687] | 1 µM | 0.89 µM | 0.351 µM | 0.294 µM | 0.611 µM | 0.784 µM | 0.314 µM | 0.87 µM | 
4 | Nc1ccc(-c2nc3cc(Cc4ccc5[nH]c(-c6ccc(N)cc6)nc5c4)ccc3[nH]2)cc1 [MMV665943] | 0.034 µM | 0.369 µM | 0.316 µM | 0.198 µM | 0.399 µM | 0.045 µM | 0.412 µM | 0.488 µM | 
5 | COc1ccc(-c2nc(NC(=O)Cc3ccc4c(c3)OCCO4)sc2C)cc1 [MMV019719] | 0.236 µM | 0.2 µM | 0.165 µM | 0.132 µM | 0.347 µM | 0.203 µM | 0.26 µM | 0.277 µM | 
6 | COc1cc(-c2nc(-c3ccccc3)c(-c3ccccc3)[nH]2)cc(OC)c1O [MMV020750] | 0.575 µM | 0.597 µM | 0.342 µM | 0.656 µM | 0.663 µM | 0.912 µM | 0.678 µM | 0.773 µM | 
7 | CN(C)S(=O)(=O)c1cc(-c2ccc3nccc(-c4cccc(S(N)(=O)=O)c4)c3c2)cnc1N [MMV024038] | 0.764 µM | 0.217 µM | 0.174 µM | 0.258 µM | 0.861 µM | 1.16 µM | 0.106 µM | 0.509 µM | 
8 | COC(=O)c1ccc(C2C3=C(O)CC(c4ccc(F)cc4)CC3=Nc3ccccc3N2C(=O)c2ccccc2)cc1 (stereo not shown) [MMV011438] | 0.187 µM | 0.229 µM | 0.428 µM | 0.513 µM | 0.842 µM | 0.379 µM | 0.152 µM | 0.655 µM | 
9 | COc1ccc2c3c([nH]c2c1)[C@H](CO)N(C(C)=O)CC31CCN(C(=O)Nc2ccccc2F)CC1 [MMV673482] | 0.039 µM |  | 0.232 µM | 0.234 µM |  | 0.027 µM | 0.07 µM | 0.005 µM | 0.127 µM
